Consider one molecule from paper PMC4043872 (Chembiochem : a European journal of chemical biology, 2014).

In one data set the target is T1, ALDH1A1 (Homo sapiens, UniProt P00352).
T1 sequence (P00352 1-501): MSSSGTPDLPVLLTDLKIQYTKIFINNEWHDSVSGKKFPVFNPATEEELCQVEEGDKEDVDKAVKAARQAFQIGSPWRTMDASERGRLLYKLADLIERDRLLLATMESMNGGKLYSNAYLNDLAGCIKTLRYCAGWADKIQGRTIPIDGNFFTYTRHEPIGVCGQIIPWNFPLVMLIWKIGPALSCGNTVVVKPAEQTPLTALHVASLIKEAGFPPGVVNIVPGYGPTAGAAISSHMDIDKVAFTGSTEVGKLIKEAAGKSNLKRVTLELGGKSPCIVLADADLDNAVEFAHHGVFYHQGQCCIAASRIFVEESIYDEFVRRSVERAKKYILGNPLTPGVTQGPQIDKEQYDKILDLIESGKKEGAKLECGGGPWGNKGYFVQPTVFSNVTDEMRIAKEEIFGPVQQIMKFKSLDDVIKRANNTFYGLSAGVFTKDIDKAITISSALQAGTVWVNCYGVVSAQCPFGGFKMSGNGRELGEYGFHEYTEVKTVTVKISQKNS
The data set can be described thus: ALDH1A1 inhibition, propionaldehyde as substrate. The settings on record: up to 250 μM. The data set is classed as biochemical.

The next data set addresses T2, ALDH1A2 (Homo sapiens, UniProt O94788).
T2 sequence (O94788 1-518): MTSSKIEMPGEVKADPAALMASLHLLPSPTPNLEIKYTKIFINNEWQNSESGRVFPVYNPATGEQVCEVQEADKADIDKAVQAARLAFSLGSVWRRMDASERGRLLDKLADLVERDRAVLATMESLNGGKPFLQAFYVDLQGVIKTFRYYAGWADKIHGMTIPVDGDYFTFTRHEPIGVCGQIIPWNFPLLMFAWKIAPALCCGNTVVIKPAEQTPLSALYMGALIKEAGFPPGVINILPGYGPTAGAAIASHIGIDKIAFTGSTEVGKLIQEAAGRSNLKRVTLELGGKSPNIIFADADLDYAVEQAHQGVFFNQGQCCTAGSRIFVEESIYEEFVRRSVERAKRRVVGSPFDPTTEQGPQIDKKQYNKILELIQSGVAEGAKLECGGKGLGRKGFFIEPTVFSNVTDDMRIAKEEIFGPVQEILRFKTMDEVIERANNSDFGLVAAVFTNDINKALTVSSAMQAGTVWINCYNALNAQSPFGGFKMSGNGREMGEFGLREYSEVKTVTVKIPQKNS
The data set can be described thus: ALDH1A2 activity assay, propionaldehyde/NAD+. The settings on record: up to 250 μM. The data set is classed as biochemical.

The target of a further data set is T3, ALDH1A3 (Homo sapiens, UniProt P47895).
T3 sequence (P47895 1-512): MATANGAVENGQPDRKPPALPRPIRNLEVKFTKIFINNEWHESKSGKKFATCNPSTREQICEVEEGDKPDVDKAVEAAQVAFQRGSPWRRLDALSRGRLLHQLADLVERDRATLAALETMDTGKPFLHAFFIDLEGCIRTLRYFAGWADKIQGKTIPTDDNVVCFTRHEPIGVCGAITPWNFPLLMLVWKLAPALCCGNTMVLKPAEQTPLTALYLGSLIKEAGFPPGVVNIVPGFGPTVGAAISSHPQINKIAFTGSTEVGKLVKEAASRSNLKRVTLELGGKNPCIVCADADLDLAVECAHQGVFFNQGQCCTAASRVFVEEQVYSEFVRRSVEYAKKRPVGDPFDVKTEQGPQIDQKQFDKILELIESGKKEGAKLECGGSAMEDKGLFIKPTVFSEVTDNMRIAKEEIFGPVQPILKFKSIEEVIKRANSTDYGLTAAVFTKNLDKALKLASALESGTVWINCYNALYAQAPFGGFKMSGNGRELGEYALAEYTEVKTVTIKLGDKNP
The data set can be described thus: ALDH1A3 activity assay, propionaldehyde/NAD+. The class given is biochemical. The following applies: up to 250 μM.

For another data set, the target named is T4, ALDH1B1 (Homo sapiens, UniProt P30837).
T4 sequence (P30837 18-517): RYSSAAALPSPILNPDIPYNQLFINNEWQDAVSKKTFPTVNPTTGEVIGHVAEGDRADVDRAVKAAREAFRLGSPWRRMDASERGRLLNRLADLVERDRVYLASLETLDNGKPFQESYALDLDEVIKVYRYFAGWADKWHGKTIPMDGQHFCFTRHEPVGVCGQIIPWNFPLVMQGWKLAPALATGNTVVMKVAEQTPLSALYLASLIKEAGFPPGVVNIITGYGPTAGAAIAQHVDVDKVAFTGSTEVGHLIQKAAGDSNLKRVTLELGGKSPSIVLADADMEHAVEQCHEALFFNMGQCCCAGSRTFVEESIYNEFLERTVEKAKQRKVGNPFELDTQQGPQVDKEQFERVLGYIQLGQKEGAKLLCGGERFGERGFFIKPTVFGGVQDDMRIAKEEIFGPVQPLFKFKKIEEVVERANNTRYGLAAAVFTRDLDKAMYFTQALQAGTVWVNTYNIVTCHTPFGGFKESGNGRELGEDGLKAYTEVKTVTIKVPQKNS
The data set can be described thus: ALDH1B1 activity assay, propionaldehyde/NAD+. The data set is classed as biochemical. The settings on record: up to 250 μM.

For another data set, the target named is T5, ALDH2 (Homo sapiens, UniProt P05091).
T5 sequence (P05091 18-517): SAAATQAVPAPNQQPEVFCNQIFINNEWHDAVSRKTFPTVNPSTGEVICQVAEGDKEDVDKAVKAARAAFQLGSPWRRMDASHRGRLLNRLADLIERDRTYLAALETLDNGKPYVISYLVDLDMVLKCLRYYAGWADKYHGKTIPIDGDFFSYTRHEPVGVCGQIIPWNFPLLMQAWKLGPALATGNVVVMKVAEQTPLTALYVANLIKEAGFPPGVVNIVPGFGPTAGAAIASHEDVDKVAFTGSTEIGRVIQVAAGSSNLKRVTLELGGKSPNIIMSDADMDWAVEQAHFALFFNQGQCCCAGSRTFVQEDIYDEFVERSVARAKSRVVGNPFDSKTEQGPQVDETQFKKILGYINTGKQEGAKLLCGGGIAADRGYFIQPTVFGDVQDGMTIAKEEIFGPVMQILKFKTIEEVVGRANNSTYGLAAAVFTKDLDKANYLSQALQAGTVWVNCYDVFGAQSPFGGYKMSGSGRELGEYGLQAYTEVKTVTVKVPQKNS
The data set can be described thus: ALDH2 inhibition, propionaldehyde as substrate. The following applies: up to 250 μM. The data set is classed as biochemical.

In data set [1] the target is T6, ALDH3A1 (Homo sapiens, UniProt P30838).
T6 sequence (P30838 1-453): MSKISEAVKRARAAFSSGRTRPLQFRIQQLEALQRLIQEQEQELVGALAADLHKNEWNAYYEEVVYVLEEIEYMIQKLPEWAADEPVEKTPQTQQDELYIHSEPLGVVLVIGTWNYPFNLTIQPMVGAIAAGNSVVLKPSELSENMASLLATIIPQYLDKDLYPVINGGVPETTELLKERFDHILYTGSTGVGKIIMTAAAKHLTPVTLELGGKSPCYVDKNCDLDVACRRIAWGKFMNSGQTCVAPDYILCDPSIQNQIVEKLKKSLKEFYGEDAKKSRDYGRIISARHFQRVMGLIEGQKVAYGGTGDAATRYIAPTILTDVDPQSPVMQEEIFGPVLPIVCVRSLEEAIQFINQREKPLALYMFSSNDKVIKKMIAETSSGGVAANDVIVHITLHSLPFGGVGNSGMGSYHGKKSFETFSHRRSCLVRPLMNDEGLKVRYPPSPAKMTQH
The data set can be described thus: Steady-state kinetics, mode of inhibition of ALDH3A1. The data set is classed as biochemical.

Data set [2] concerns the target T7, ALDH3A1 activity in A549 cell lysates (Homo sapiens, UniProt P30838).
T7 sequence (P30838 1-453): T6 sequence (P30838 1-453)
The data set can be described thus: Cell lysate ALDH3A1 activity in presence and absence of CB29, A549. The data set is classed as biochemical. The settings on record: 50 μM CB29, […] NADP+, 1 mM benzaldehyde.

The target of data set [3] is T8, ALDH3A1 activity in SF767 cell lysates (Homo sapiens, UniProt P30838).
T8 sequence (P30838 1-453): T6 sequence (P30838 1-453)
The data set can be described thus: Cell lysate ALDH3A1 activity in presence and absence of CB29, SF767. The data set is classed as biochemical. The settings on record: 50 μM CB29, […] NADP+, 1 mM benzaldehyde.

The target of data set [4] is T6, ALDH3A1. The data set can be described thus: Recombinant ALDH3A1 activity in presence and absence of CB29. The data set is classed as biochemical. The settings on record: 50 μM CB29, […] NADP+, 1 mM benzaldehyde.
A short description of data set [5]: Formation of homogeneous solution. The settings on record: in the presence of […] DMSO. The class given is physicochemical.
For a further data set, the system named is A549 cells. The settings on record: 50 μM inhibitor alone, 19 hours, MTT, Figure 4A grey bars.
The subject of a further data set is CCD-13Lu cells. The data set can be described thus: Colorimetric MTT assay for mafosfamide sensitivity, CCD-13Lu. The settings on record: 19 hours, Figure 4C. Background: Tetrazolium dyes change colour on reduction, which living cells bring about.

What is called Ki is the dissociation constant of the complex between target and ligand, obtained from inhibition or displacement. High values mean weaker binding, low ones tighter binding. As to `CC(=O)Nc1ccc(Nc2ccc(S(C)(=O)=O)cc2[N+](=O)[O-])cc1` [CB29, N-[4-{(4-(methylsulfonyl)-2-nitrophenyl)-4-amino}-phenyl]-acetamide], the “inhibition toward ALDH1A1” value against ALDH1A1 is on record as < 5%. On ALDH1A2, the “inhibition toward ALDH1A2” value was < 5%. Moreover, the “inhibition toward ALDH1A3” value at ALDH1A3 is recorded as < 5%. Also, the “inhibition toward ALDH1B1” value at ALDH1B1 is reported as < 5%. For the same molecule, the “inhibition toward ALDH2” value on ALDH2 is listed as < 5%. Also, the Ki at ALDH3A1 [1] (competitive versus varied benzaldehyde, fixed NADP+ […], 10 nM ALDH3A1) amounted to 4 µM. At ALDH3A1 [1] (with respect to benzaldehyde), the mode of inhibition entry was “competitive”. Besides, the “decrease of ALDH3A1 activity in A549 cell lysate” value in data set [2] is given as > 95%. Moreover, in data set [3], the “decrease of ALDH3A1 activity in SF767 cell lysate” value is given as > 90%. For the same molecule, on ALDH3A1 [4], the “decrease of activity of recombinant ALDH3A1” value is listed as ~ 97%. For the same molecule, the homogeneous solution formed in [5] is ≥ 100 µM. Moreover, in the data set on A549 cells, the “effect on cell proliferation as single agent, A549 (in words)” value is on record as “little effect”. For the same molecule, the “increase in mafosfamide chemosensitivity, SF767” value in the data set with SF767 cells (50 μM inhibitor + […] mafosfamide, 19 hours, MTT, p<0.005) is ~2 fold. The “effect on cell proliferation as single agent, SF767 (in words)” value with SF767 cells (50 μM inhibitor alone, 19 hours, MTT, Figure 4B grey bars) was “little effect”. Besides, the “decrease of ED50 value of mafosfamide in the presence of inhibitor, SF767” value with SF767 cells (inhibitor 50 μM, Figure 5B) was determined as 1.6 fold. In addition, the “ED50 of mafosfamide in the presence of inhibitor, SF767” value in the data set with SF767 cells (inhibitor 50 μM, mafosfamide 0-250 μM, MTT, Figure 5B) came out at 92 ± 4 µM. The “enhancement of mafosfamide sensitivity, CCD-13Lu (in words)” value with CCD-13Lu cells (50 μM inhibitor + 40 μM mafosfamide) is listed as “did not show mafosfamide chemosensitivity”. Moreover, the “cytotoxicity / proliferation with inhibitor alone, CCD-13Lu (in words)” value in the data set on CCD-13Lu cells (50 μM inhibitor) was “unaffected”.
